Earlier results on one molecule are cited in patent publication US20160120870A1, “THE PROCESS FOR THE PREPARATION OF A PHARMACEUTICAL COMPOSITION COMPRISING RIVAROXABAN” (SANDOZ AG, priority 2013, published 2016).

For this data set the following is noted: background prior art, drug substance.

Turning to `O=C(NC[C@H]1CN(c2ccc(N3CCOCC3=O)cc2)C(=O)O1)c1ccc(Cl)s1` [Rivaroxaban, (S)-5-chloro-N-{[2-oxo-3-[4-(3-oxomorpholin-4-yl)phenyl]oxazolidin-5-yl]methyl}thiophene-2-carboxamide], the water solubility result is on record as “relatively poor”.
